Experimental data as given in patent US20220087987A1, “A METHOD FOR TREATING SWI/SNF COMPLEX-DEFICIENT CANCERS COMPRISING GLUTATHIONE (GSH) METABOLIC PATHWAY INHIBITOR” (National Cancer Center, priority 2018, published 2022).
Where a name gives a salt, the structure may show the parent alone.

Tests used:
Format in all cases: cell-based, human
p53, p21 = assay: Immunoblot for p53 and p21; details: ARID1A-WT and ARID1A-KO HCT116; 50 μM PRIMA-1, 50 μM APR-246, 10 μM Nutlin3a, 16 hrs
Procedure: The soluble fractions of whole-cell lysates were mixed with SDS sample buffer. […] The soluble fractions were mixed with SDS sample buffer. Tumor samples derived from xenografts were weighed and washed with PBS. […] The homogenized tumor samples were diluted in an additional 450 μl of NETN420 buffer, incubated for 30 min on ice, and centrifuged at 4° C. for 10 min at 15,000 rpm. The soluble fractions of whole-cell lysates were mixed with SDS sample buffer. Proteins were separated by SDS-PAGE, transferred to PVDF membranes, and immunoblotted with the indicated antibodies. β-actin was used as a loading control. Membranes were blocked overnight at 4° C. or for 1 hr at 25° C. with PVDF Blocking Reagent for Can Get Signal (TOYOBO) and then probed with Can Get Signal Solution 1 (TOYOBO) containing primary antibodies. After washing with TBS containing 0.1% Tween 20, the membranes were incubated with TBS containing 0.1% Tween 20, 1% BSA, and horseradish peroxidase-conjugated anti-mouse or anti-rabbit secondary antibodies, and visualized using Western Lightning ECL Pro (Perkin Elmer). Chemiluminescence signals were measured using LAS-3000 Imaging System (Fujifilm). Signal intensities were measured using Multi Gauge software.

GSH = assay: Detection of GSH in cells (GSH/GSSG-Glo, GSH-Glo); details: ARID1A-deficient versus ARID1A-proficient ovarian and other cancer cells
ROS = assay: Detection of ROS in cells (ROS-Glo); details: ARID1A-deficient versus ARID1A-proficient ovarian and other cancer cells
Procedure: GSH, ROS and apoptosis were detected using the GSH/GSSG-Glo Assay (Promega) and/or the GSH-Glo Assay (Promega), the ROS-Glo Assay (Promega), and the Caspase-Glo 3/7 Assay, respectively. To measure levels of GSH, ROS and apoptosis after drug treatment, cells were trypsinized, counted, reseeded at the specified density in 96-well plates and exposed to the indicated concentrations of drugs. After 16-48 hrs, luminescence was measured using an Envision Multi-label plate reader (PerkinElmer). To measure levels of GSH and ROS after siRNA-mediated knockdown, cell lines were transfected with siRNAs (25 nM) using Lipofectamine RNAiMAX. After 48 hrs, cells were trypsinized and transfected repeatedly with siRNAs (25 nM) using Lipofectamine RNAiMAX. Cells were trypsinized after a further 48 hrs, counted, and reseeded at the specified density in 96-well plates. After 72-120 hrs, luminescence was measured using an Envision Multi-label plate reader (PerkinElmer). Cell viability was also measured using the CellTiter-Glo Luminescent Cell Viability Assay (Promega). Caspase-3/7, GSH, and ROS levels were normalized against cell viability. The GSH/GSSG ratio was calculated as the GSH-GSSG signal divided by the GSSG/2 signal. Relative signal ratios in treated samples were normalized against untreated samples.

[1] = test system: ARID1A-proficient and ARID1A-deficient cancer cell lines; assay: Cell viability and colony formation in cancer cell line panel
ARID1A-KO HCT116 cells = assay: Drug library screen, cell viability (CellTiter-Glo); details: Homo sapiens, HCT-116, 120 h; HCT116 ARID1A-KO; 10 μM for 5 days; relative to cells treated with solvent (DMSO); read-out: Cell viability, KO
Outline: (§1)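 ARID1A-WT and ARID1A-KO HCT116 cells screened against the library; viability read after 5 days by CellTiter-Glo luminescence, expressed relative to DMSO-treated cells. Hits: KO viability below 40% with WT viability above 80%.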

[2] = as above; details: human; HCT116 ARID1A-WT; 10 μM for 5 days; relative to cells treated with solvent (DMSO); read-out: Cell viability, WT
Outline: as §1

## COc1ccc(C2=N[C@@H](c3ccc(Cl)cc3)[C@@H](c3ccc(Cl)cc3)N2C(=O)N2CCNC(=O)C2)c(OC(C)C)c1 [Nutlin3a]
p53, p21
  expression of p53 and p21: increased the p53 level and upregulated the p53 target p21

## CC(=O)OC[C@H]1O[C@@H]([S-])[C@H](OC(C)=O)[C@@H](OC(C)=O)[C@@H]1OC(C)=O.CCP(CC)CC.[Au+] [auranofin]
GSH
  GSH level in cancer cell lines: more evident in ARID1A-deficient cancer cells
ROS
  ROS level in cancer cell lines: more evident in ARID1A-deficient cancer cells
[1]; four ARID1A-proficient and six ARID1A-deficient cell lines, cell viability, colony formation
  sensitivity of ARID1A-deficient versus ARID1A-proficient cancer cells: more sensitive to the TrxR inhibitor auranofin than ARID1A-proficient cells

## CC(C)C[C@H](NC(=O)[C@H](Cc1ccccc1)NC(=O)c1cnccn1)B(O)O [bortezomib]
ARID1A-KO HCT116 cells
  viability at 10 µM: 5.81%
[2]
  viability at 5 days, 10 μM: 3.06%

## CN(C)CCCN1c2ccccc2Sc2ccc(Cl)cc21 [chlorpromazine hydrochloride]
ARID1A-KO HCT116 cells
  viability at 10 µM: 15.6%
[2]
  viability at 5 days, 10 μM: 7.83%

## C[C@@H](Oc1cc(-c2cnn(C3CCNCC3)c2)cnc1N)c1c(Cl)ccc(F)c1Cl [crizotinib]
ARID1A-KO HCT116 cells
  viability at 10 µM: 5.88%
[2]
  viability at 5 days, 10 μM: 2.29%

## CC1=C2C[C@H]3[C@@H](CC=C4C[C@@H](O)CC[C@@]43C)[C@@H]2CC[C@]12O[C@@H]1C[C@H](C)CN[C@H]1[C@H]2C [cyclopamine]
ARID1A-KO HCT116 cells
  viability at 10 µM: 86.7%
[2]
  viability: 49.3%

## Cc1nc(Nc2ncc(C(=O)Nc3c(C)cccc3Cl)s2)cc(N2CCN(CCO)CC2)n1 [dasatinib]
ARID1A-KO HCT116 cells
  viability at 10 µM: 37.8%
[2]
  viability at 5 days, 10 μM: 33.5%

## CNCCCN1c2ccccc2CCc2ccccc21 [desipramine hydrochloride]
ARID1A-KO HCT116 cells
  viability at 10 µM: 63.1%
[2]
  viability at 5 days, 10 μM: 34.6%

## C#Cc1cccc(Nc2ncnc3cc(OCCOC)c(OCCOC)cc23)c1 [erlotinib]
ARID1A-KO HCT116 cells
  viability at 10 µM: 48.6%
[2]
  viability at 5 days, 10 μM: 48.1%

## CO[C@H]1C[C@@H]2CC[C@@H](C)[C@@](O)(O2)C(=O)C(=O)N2CCCC[C@H]2C(=O)O[C@H]([C@H](C)C[C@@H]2CC[C@@H](OCCO)[C@H](OC)C2)CC(=O)[C@H](C)/C=C(\C)[C@@H](O)[C@@H](OC)C(=O)[C@H](C)C[C@H](C)/C=C/C=C/C=C/1C [everolimus]
ARID1A-KO HCT116 cells
  viability at 10 µM: 77.1%
[2]
  viability at 5 days, 10 μM: 77.4%

## COc1cc2ncnc(Nc3ccc(F)c(Cl)c3)c2cc1OCCCN1CCOCC1 [gefitinib]
ARID1A-KO HCT116 cells
  viability at 10 µM: 72.4%
[2]
  viability at 5 days, 10 μM: 54.5%

## Cc1ccc(NC(=O)c2ccc(CN3CCN(C)CC3)cc2)cc1Nc1nccc(-c2cccnc2)n1 [imatinib mesylate]
ARID1A-KO HCT116 cells
  viability at 10 µM: 55.4%
[2]
  viability at 5 days, 10 μM: 37.2%

## O=C1NC(=O)c2c1c1c3ccccc3[nH]c1n1cncc21 [isogranulatimide]
ARID1A-KO HCT116 cells
  viability at 10 µM: 151%
[2]
  viability at 5 days, 10 μM: 118%

## CS(=O)(=O)CCNCc1ccc(-c2ccc3ncnc(Nc4ccc(OCc5cccc(F)c5)c(Cl)c4)c3c2)o1 [lapatinib]
ARID1A-KO HCT116 cells
  viability at 10 µM: 78.4%
[2]
  viability at 5 days, 10 μM: 52.7%

## Nc1cccc2c1CN(C1CCC(=O)NC1=O)C2=O (stereo not shown) [lenalidomide]
ARID1A-KO HCT116 cells
  viability at 10 µM: 112%
[2]
  viability at 5 days, 10 μM: 91.1%

## Cc1cn(-c2cc(NC(=O)c3ccc(C)c(Nc4nccc(-c5cccnc5)n4)c3)cc(C(F)(F)F)c2)cn1 [nilotinib]
ARID1A-KO HCT116 cells
  viability at 10 µM: 91.6%
[2]
  viability at 5 days, 10 μM: 85.8%

## CCCCCCCCCCC[C@@H](C[C@@H]1OC(=O)[C@H]1CCCCCC)OC(=O)[C@H](CC(C)C)NC=O [orlistat]
ARID1A-KO HCT116 cells
  viability at 10 µM: 86.1%
[2]
  viability at 5 days, 10 μM: 84.6%

## Cc1ccc(Nc2nccc(N(C)c3ccc4c(C)n(C)nc4c3)n2)cc1S(N)(=O)=O [pazopanib]
ARID1A-KO HCT116 cells
  viability at 10 µM: 39.8%
[2]
  viability at 5 days, 10 μM: 19.8%

## CNC(=O)c1cc(Oc2ccc(NC(=O)Nc3ccc(Cl)c(C(F)(F)F)c3)cc2)ccn1 [sorafenib]
ARID1A-KO HCT116 cells
  viability at 10 µM: 70.4%
[2]
  viability at 5 days, 10 μM: 61.4%

## O=C(O)c1cc(/N=N/c2ccc(S(=O)(=O)Nc3ccccn3)cc2)ccc1O [sulfasalazine]
[1]; cell viability after 3 days
  sensitivity of ARID1A-deficient TOV21G versus ARID1A-proficient RMG-I ovarian cancer cells: more sensitive than ARID1A-proficient RMG-I ovarian cancer cells

## CCN(CC)CCNC(=O)c1c(C)[nH]c(/C=C2\C(=O)Nc3ccc(F)cc32)c1C [sunitinib malate]
ARID1A-KO HCT116 cells
  viability at 10 µM: 5.95%
[2]
  viability at 5 days, 10 μM: 3.23%

## CC(C)(C)c1cc(O)ccc1O [t-Butylhydroquinone (BHQ), t-Butylhydroquinone]
ARID1A-KO HCT116 cells
  viability at 10 µM: 96.6%
[2]
  viability at 5 days, 10 μM: 95.4%

## CC1(C)CCC(C)(C)c2cc(NC(=O)c3ccc(C(=O)O)cc3)ccc21 [tamibarotene]
ARID1A-KO HCT116 cells
  viability at 10 µM: 101%
[2]
  viability at 5 days, 10 μM: 77.3%

## Cn1nnc2c(C(N)=O)ncn2c1=O [temozolomide]
ARID1A-KO HCT116 cells
  viability at 10 µM: 104%
[2]
  viability at 5 days, 10 μM: 84.4%

## CO[C@H]1C[C@@H]2CC[C@@H](C)[C@@](O)(O2)C(=O)C(=O)N2CCCC[C@H]2C(=O)O[C@H]([C@H](C)C[C@@H]2CC[C@@H](OC(=O)C(C)(CO)CO)[C@H](OC)C2)CC(=O)[C@H](C)/C=C(\C)[C@@H](O)[C@@H](OC)C(=O)[C@H](C)C[C@H](C)/C=C/C=C/C=C/1C [temsirolimus]
ARID1A-KO HCT116 cells
  viability at 10 µM: 75%
[2]
  viability at 5 days, 10 μM: 82.1%

## O=C1CCC(N2C(=O)c3ccccc3C2=O)C(=O)N1 (stereo not shown) [thalidomide]
ARID1A-KO HCT116 cells
  viability at 10 µM: 107%
[2]
  viability at 5 days, 10 μM: 95%

## CC1=C(/C=C/C(C)=C/C=C/C(C)=C/C(=O)O)C(C)(C)CCC1 [tretinoin]
ARID1A-KO HCT116 cells
  viability at 10 µM: 96.3%
[2]
  viability at 5 days, 10 μM: 77.7%

## O=C(CCCCCCC(=O)Nc1ccccc1)NO [vorinostat]
ARID1A-KO HCT116 cells
  viability at 10 µM: 6.02%
[2]
  viability at 5 days, 10 μM: 2.82%
